Experimental findings from patent publication US9056835B2, “LPA2 receptor-specific benzoic acid derivatives” (University of Tennessee Research Foundation, priority 2012, dated 2015) are described below.

The test system of test [1] is vector- and LPA2-transduced MEF cells. As to the kind of experiment: Adriamycin-induced apoptosis, caspase activity assay. It is filed as cell-based, mouse. Conditions: for decrease in caspase-8 activation / decrease in caspase 9 activation: GRI977143 10 μM; for protection against caspase 3 and 7 activation: GRI977143 above 3 μM; for inhibition of caspase 3/7 activation: 10 μM. On the procedure: Experiments were performed on vector- and LPA2-transduced MEF cells. To measure caspase 3, 7, 8, or 9 activity and DNA fragmentation, cells were plated in 48-well plates (2×10^4 cells/well). To detect PARP-1 cleavage and Bax translocation, 1.5×10^6 cells were plated in 10-cm dishes and cultured overnight in full growth medium. The next morning, the growth medium was replaced by serum-starvation medium and cells were pretreated for 1 h with LPA (1-10 μM), OTP (1-10 μM), GRI977143 (1-10 μM), or vehicle. Caspase activity, DNA fragmentation, PARP-1 cleavage, and Bax translocation were measured 5 h after incubation with 1.7 μM Adriamycin or 24 h after serum withdrawal.
Caspase-Glow® 3/7, Caspase-Glow® 8 and Caspase-Glow® 9 reagents were purchased from Promega (Madison, Wis.) and used according to the manufacturer's instructions. Briefly, cells were lysed by adding 50 μl of lysis reagent per well, followed by shaking for 30 min at room temperature. […] lysate were transferred to a 96-well white-wall plate, and luminescence was measured using a BioTek® (Winooski, Vt.) plate reader.

The target of another test is P2Y10 (Homo sapiens, UniProt O00398). As to the kind of experiment: LPA receptor-mediated Ca2+ mobilization assay, P2Y10. The format is cell-based. Conditions: for EC50: agonist, Ca2+ mobilization; for inhibition of P2Y10 Ca2+ response: 10 μM, ~EC75 LPA 18:1; for P2Y10 Imax (%): inhibition by 10 μM compound of ~EC75 LPA 18:1 Ca2+ response. On the procedure:
Similarity searches were performed separately using each fingerprint to quantitate similarity. Hits meeting the 80% similarity threshold from each search were ranked based on the Tanimoto coefficient measure of similarity to a target molecule NSC12404, and the top 75 unique hits from each fingerprint search were selected for further analysis. The 225 compounds selected for further analysis were clustered based on Tanimoto coefficients calculated using Molecular ACCess System-key fingerprints (MACCS keys) and evaluated using the diversity subset function implemented in MOE. This selected a diverse subset of 27 compounds for biological evaluation by choosing the middle compounds in each cluster. These 27 compounds were tested in Ca^2+ mobilization assays at a concentration of 10 μM using stable cell lines individually expressing LPA2 and also in vector-transfected control cells. Hits activating LPA2 were further tested using cells expressing the other established and putative LPA GPCRs. Experimental testing of the selected compounds identified the three new selective LPA2 agonists: GRI977143, H2L5547924, and H2L5828102. […] They arbitrarily selected GRI977143 for further characterization in cell-based assays.
J Biol Chem (2009) 284(25): 17304-17319). […] The cells were loaded with Fura-2-acetoxymethyl esther (Fura-2/AM) in Krebs buffer containing 0.01% pluronic acid for 30 min and rinsed with Krebs buffer before measuring Ca^2+ mobilization. The ratio of peak emissions at 510 nm after 2 min of ligand addition was determined for excitation wavelengths of 340 nm/380 nm. All samples were run in quadruplicate. […] The half maximally effective concentration (EC50), and inhibitory constant (Ki) values were calculated by fitting a sigmoid function to dose-response data points using KaleidaGraph software (version 4.1, Synergy Software; […]).
Mouse embryonic fibroblast (MEF) cells were isolated from E13.5 LPA1&2 double knockout (DKO) embryos. MEFs were transduced with empty vector or LPA2-containing lentiviruses and selected with 1.5 μg/ml puromycin. Cells were maintained in Dulbecco's modified Eagle medium (DMEM) supplemented with 10% (V/V) fetal bovine serum (FBS), 2 mM L-glutamine, 100 U/mL penicillin, and 100 μg/mL streptomycin. Serum-free medium contained 0.1% (W/V) BSA in DMEM. The rat intestinal epithelial cell line 6 (IEC-6) was obtained from the American Type Culture Collection (Rockville, Md.) at passage 13; passages 16-21 were used in all experiments. IEC-6 cells were maintained in a humidified 37° C. incubator in an atmosphere of 90% air and 10% CO2. Growth medium consisted of DMEM supplemented with 5% heat inactivated FBS, 10 μg/mL insulin, and 50 μg/mL gentamycin. The composition of the serum-starvation medium was the same as that of the full growth medium except that it contained no FBS. The McArdle rat hepatoma cell line (RH7777) stably expressing LPA2 receptors was a gift from Dr. Fumikazu Okajima (Gunma University, Maebashi, Japan). RH7777 cells stably expressing LPA1 or LPA3 receptors were generated in-house and had been characterized earlier. Wild type and LPA receptor (LPAR) stably transfected RH7777 cells were grown in DMEM supplemented with 10% FBS and 2 mM L-glutamine in the presence of 250 μg/ml G418. Chinese hamster ovary (CHO) cells stably expressing either vector or LPA4 receptor were a kind gift from Dr. Takao Shimizu (Tokyo University; Tokyo, Japan). Cells were cultured in Ham's F12 medium containing 10% FBS, 2 mM L-glutamine, and 350 μg/ml G418. Rat neuroblastoma cells (B103) were transduced with the lentivirus harboring wild type of FLAG-LPA5 and selected with puromycin to establish the stable cell lines. The stable cells were maintained in DMEM supplemented with 10% FBS and 0.4 μg/ml puromycin. GPR87- and P2Y10-expressing CHO cells and vector-transfected control cells were a gift from Dr. Norihisha Fujita (Ritsumeikan University; Shiga, Japan). […]
(In general: A change in cytosolic calcium serves as a functional read-out for many receptors and channels.)

Where [2] appears, read: LPA2-transduced MEF, LPA and OTP 1 μM.
Setting [3] is: vector-transduced MEF, LPA and OTP 1 μM.

Bounds are passed on as bounds.

P2Y10, sequence (O00398 whole entry): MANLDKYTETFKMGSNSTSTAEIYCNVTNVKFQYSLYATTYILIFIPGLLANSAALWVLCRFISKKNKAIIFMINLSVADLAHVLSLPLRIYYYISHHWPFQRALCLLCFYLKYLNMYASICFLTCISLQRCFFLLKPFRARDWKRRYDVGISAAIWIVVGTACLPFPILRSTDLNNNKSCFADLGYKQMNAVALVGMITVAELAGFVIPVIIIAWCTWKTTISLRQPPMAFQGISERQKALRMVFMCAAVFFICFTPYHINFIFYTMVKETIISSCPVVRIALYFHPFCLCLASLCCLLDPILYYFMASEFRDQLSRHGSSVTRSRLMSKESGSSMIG

`CCCCCCCC/C=C\CCCCCCCC(=O)OC[C@@H](O)COP(=O)(O)O` [LPA 18:1, Lysophosphatidic acid (18:1)]: the “decrease in caspase-8 activation” value in test [1] (setting [2]) turned out to be 36±1%. Further, the “protection against caspase 3 and 7 activation” value (from here on “protection”) in test [1] (LPA2-transduced MEF) is “protected”. Further, in test [1] (vector-transduced MEF), the “inhibition of caspase 3/7 activation” value amounted to 26±1%. The “decrease in caspase 8 activation” value in test [1] (setting [3]) stood at 12±2%. The EC50 at P2Y10 amounted to 0.029 µM.
Regarding `O=C(O)c1cc(Cl)c(Cl)cc1C(=O)Nc1ccc2c(c1)C(=O)c1ccccc1-2` [Compound H2L5547924], at P2Y10, the “inhibition of P2Y10 Ca2+ response” value is “partially inhibited” and the “P2Y10 Imax (%)” value came to 34%.
Taken in the same sequence, the figures for `O=C(O)c1ccccc1C(=O)Nc1ccc2c(c1)C(=O)c1ccccc1C2=O` [Compound H2L5828102] were “partially inhibited” and 39%.
Turning to `O=C(O)c1ccccc1C(=O)Nc1ccc2c(c1)C(=O)c1ccccc1-2` [NSC12404], on P2Y10, the EC50 is over 10 µM.
With `O=C(O)c1ccccc1SCCCN1C(=O)c2cccc3cccc(c23)C1=O` [GRI977143], the “decrease in caspase-8 activation” value in test [1] (setting [2]) came out at 41±5%. For the same compound, the “decrease in caspase 9 activation” value in test [1] (LPA2-transduced MEF, OTP 1 μM) is 46±4%; in test [1] (setting [3]), “did not affect”. Also, the “protection” value in test [1] (LPA2-transduced MEF) is “significant protection”. Also, the “inhibition of caspase 3/7 activation” value in test [1] (vector-transduced MEF) is listed as “did not attenuate”. The EC50 at P2Y10 was over 10 µM.
Consider octadecenyl thiophosphate [OTP], for which the “decrease in caspase-8 activation” value in test [1] (setting [2]) worked out at 33±2%. Moreover, in test [1] (LPA2-transduced MEF, OTP 1 μM), the “decrease in caspase 9 activation” value worked out at 38±1%. For the same compound, the “protection” value in test [1] (LPA2-transduced MEF) is recorded as “protected”. For the same compound, the “inhibition of caspase 3/7 activation” value in test [1] (vector-transduced MEF) is “did not attenuate”. Moreover, the “decrease in caspase 8 activation” value in test [1] (setting [3]) is 15±5%.

The EC50 is the concentration needed to bring the measured effect to its halfway point.
